In patent US20230226002A1, “RETINAL BIOA[…] SYNTHETIC VERY-LONG-CHAIN POLYUNSATURATED FATTY ACIDS” (University of Utah Research Foundation, priority 2020, published 2023):

Columns and labels:
[1] = π-A isotherms of VLC-PUFA in DSPC lipid monolayers (Langmuir trough); assay type: physicochemical
Protocol: Pressure-area (π-A) isotherms were collected using a Langmuir trough (KSV, Helsinki, Finland). PBS was used as the subphase for all isotherms. Stock solutions of pure VLC-PUFA, pure DSPC, and DSPC containing 0.1 mol %, 1 mol %, or 10 mol % VLC-PUFA were spread at the air/water interface and allowed to equilibrate for 15 minutes prior to compression to allow for solvent evaporation. The monolayers were compressed at a rate of 2 mm/min at 22±1° C. and repeated in triplicate. The averaged isotherms were smoothed using a 100-point rolling average. The MMA of mixture of VLC-PUFA in DSPC layers was calculated by the formula: MMADSPC+VLC-PUFA=MMADSPCXDSPC+MMAVLC-PUFAXVLC-PUFA, where the X is mol fraction of DSPC and VLC-PUFA in membrane.
After developing an efficient synthetic route to producing VLC-PUFAs, their previously unexplored biophysical properties were studied, including their impact on membrane packing and compressibility as well their influence on membrane dynamics, particularly lipid flip-flop. […] The changes imparted by VLC-PUFAs on lipid packing and the compression moduli of model membranes were evaluated from π-A isotherms of 32:6 n-3 in 1,2-distearoyl-sn-3-glycero-phosphocholine (DSPC) lipid monolayers (FIG. 2A). […]

[2] = DSPC flip-flop kinetics by sum-frequency vibrational spectroscopy; assay type: physicochemical; details: 0.1 mol % VLC-PUFA in DSPC vs pure DSPC, about 46° C.
Protocol: Planar supported lipid bilayers (PSLBs) used in this study were prepared using the Langmuir-Blodgett/Langmuir-Schaefer (LB/LS) method, the details of which are presented elsewhere (Liu and Conboy (2009) Vib. Spectrosc. 50: 106-115). Briefly, the cleaned SiO2 prisms were submerged in PBS. Afterwards, 0.1 mol % VLC-PUFA in DSPCd70 was spread over the air/water interface and allowed to thermally equilibrate for 15 minutes. Afterwards, the monolayer was compressed to 30 mN/m at a rate of 4 mm/min, and the surface pressure was allowed to stabilize for another 5 minutes. The prism was then withdrawn at a rate of 3 mm/min to deposit the LB layer. The subphase was removed, and the trough was cleaned using methanol, isopropanol, and water. […]
Following bilayer assembly, the flow-cell was flushed with PBS in D2O to eliminate any spectral interference from the 0-H bands from water. […] The flip-flop rates of DSPC were determined from the decay of methyl symmetric stretch mode (CH3 vs) for an asymmetrically prepared VLC-PUFA:DSPC membrane in which on leaflet contained dueterated DSPCd70 and DSPC. As DSPC lipid exchange between leaflets, the intensity of the CH3 vs decreases over time due to flip-flop and the rate of exchange is determined by fitting the data to ICH3(t)=Imin+Imaxe^−4kt, the results of which are presented in FIG. 2B. The half-lives of flip-flop were calculated using […]

[3] = Single dose gavage bioavailability, GC-MS of serum and tissues; assay type: in vivo, WT mice (C57BL/6J); details: single oral gavage dose of 6 mg, mice
Protocol: WT mice (C57BL/6J) mice have been used in this study for single dose gavage, repeated dose gavage and optomotry experiments. VLC-PUFA liposomes have been prepared using liposome kit (0.05%) with an addition of alpha-tocopherol (VE) (0.025%) to prevent oxidation. Three month old WT mice were gavage fed with VLC-PUFA liposomes. A dose of 6 mg/mice/day was used, half the dosage used for DHA by previous studies (Jiang, et al. (2009) The Journal of Nutritional Biochemistry 20: 735-741; Hacioglui, et al. (2007) Neurobiology of Learning and Memory 87: 159-165). The mice were gavage fed and sacrificed at time intervals (n=4/time point) of 2, 4, 8, and 24 hr to harvest the blood and other tissues. Eyes were dissected under the microscope to separate retina from RPE. One pair of retina/mouse have been used for lipid extraction as described in the procedure elsewhere. Blood was centrifuged for 5 min at 7500 rpm to separate serum from RBC. Serum, RBC, liver, retina and RPE have been used for lipid extractions and GC-MS analysis.
(§1) Serum, RBCs, orbital adipose tissue, and retina punches, were extracted using the procedure previously adopted (Liu, et al. (2013) J. Chromatogr. A 1307: 191-200). The samples and internal standards (50 μg of tridecanoic acid and 1.15 μg of hentriacontanoic acid) were added in 2 ml stainless steel vials and then homogenized with 0.7 ml silica beads and 1 ml hexane-isopropanol (3:2 v:v) by a Mini Bead Beater-16 (BioSpec Products Inc., Bartlesville, Okla., USA) and a Sonic Dismembrator Model 100 (Fisher Scientific, Pittsburgh, Pa., USA). The homogenized samples were bath sonicated for 5 min in an ice water bath. After centrifugation at 10,000 rpm for 5 min, the extracted solution supernatant was transferred to a clean vial and then dried under a stream of nitrogen. The dried film was dissolved in 200 μl hexane, and 2 ml of 4% HCl in methanol was added. The tubes were flushed with argon and incubated at 80° C. for 4 hr to form FAMEs (Liu, et al. (2013) J. Chromatogr. A 1307: 191-200) and then allowed to cool. The FAME mixture was extracted three times with 1 ml distilled water and 2 ml hexane. The hexane layers were combined and dried under nitrogen gas.
(§2) Silica gel, glass-encased, solid-phase extraction cartridges were subsequently used to clean the FAME extracts. The cartridge was activated with 6 ml of hexane before loading samples. The crude FAME extract was dissolved in 200 μl of hexane and loaded onto the activated cartridge. The cartridge was washed with 6 ml hexane, and the eluate was discarded. FAMEs were eluted from the cartridge with 5 ml hexane:ether (4:1), and the eluate was evaporated under nitrogen gas. The dry film was dissolved in 200 μl of hexane and centrifuged for 3 min at 14,000 rpm to remove particles prior to GC-MS analysis. 1 μl of sample was injected into the GC-MS instrument for LC-PUFAs analysis. For VLC-PUFAs analysis, the sample was dried with nitrogen again and re-dissolved in 20 μl of n-nonane, and 5 μl samples were injected into the GC-MS instrument.
(§3) The Thermo Trace GC-DSQ II system (ThermoFisher Scientific, Waltham, Mass., USA) consists of an automatic sample injector (AS 3000), gas chromatograph (GC), single quadrupole mass detector, and an analytical workstation. The chromatographic separation was carried out with an Rxi-5MS coated 5% diphenyl/95% dimethyl polysiloxane capillary column (30 m×0.25 mm i.d, 0.25 μm film thickness) (Restek, Bellefonte, Pa., USA). Two methods (A and B) were used for detection and quantitation of LC-PUFAs and VLC-PUFAs, respectively as previously published (Liu, et al. (2013) J. Chromatogr. A 1307: 191-200). Bovine retina VLC-PUFAs were extracted and employed as VLC-PUFA standards to establish retention times because commercial standards are not available, and identification of each VLC-PUFA in retinal samples was achieved as described in prior work (Liu, et al. (2010) J. Lipid Res. 51: 3217-3229).

[4] = Repeated dose gavage for 15 days, GC-MS of serum and tissues; assay type: in vivo, WT mice (C57BL/6J); details: gavage 15 days
Protocol: Repeated dose gavage. VLC-PUFA liposomes were gavaged to three month old WT mice for 15 days. The mice were divided into three groups (n=4/group), Group 1 was fed with liposomes prepared with PC and alpha-tocopherol, Group 2 was fed with liposomes prepared with PC, VE, and 1 mg VLC-PUFAs and Group 3 was fed with liposomes with PC, VE and 2 mg VLC-PUFAs. Mice were sacrificed at the end of the experiment and organs were harvested, extracted for lipids and analyzed by GC-MS using the procedure mentioned elsewhere.
as §1, §2, §3

WT mice (C57BL/6J) = test: Optomotry/Visual behavior test after repeated dose gavage; assay type: in vivo; details: 2 mg/day for 15 days by gavage, compared to controls
Protocol: Optomotry/Visual behavior test. Repeated dose gavage fed mice were tested for visual behavior to observe the effect of VLC-PUFA on vision. Since the optomotry tests could be manipulative, all the analysts were double blinded. 3 month-old mice were employed to test spatial visual acuity using the OptoMotry system (Cerebral Mechanics, Lethbridg, AB, Canada). Briefly, individual mice were placed on a platform centered in a quad-square formed by four inward facing computer screens, and their movements were monitored by an overhead video camera. Photopic measurements were conducted under illuminance of around 165 lux. […] During the detection of spatial frequency threshold, the rotation speed and contrast were kept at 12°/s, and 100%, respectively, while the frequency was kept at 0.19 cycle/degree in the examination of contrast sensitivity. All experiments had concurrent control mice fed with placebo chow.

[5] = 1 and 2 mg/day groups vs control mice (undetectable)
[6] = both 1 and 2 mg/day groups vs 0 mg/day controls, mice

With `CC/C=C\C/C=C\C/C=C\C/C=C\C/C=C\C/C=C\CCCCCCCCCCCCC(=O)O` [32:6 n-3, (14Z,17Z,20Z,23Z,26Z,29Z)-dotriaconta-14,17,20,23,26,29-hexaenoic acid] the “elasticity of DSPC membranes” value ([1]; 0.1 mol % VLC-PUFA in DSPC membranes) was “high elasticity”, the “shift of π-A isotherm / mean molecular area (MMA) of the lipids” value ([1]; 0.1 mol %, 1 mol % and 10 mol % VLC-PUFA in DSPC monolayer, PBS pH 7.4 subphase, 22° C.) was “shifted the π-A isotherm to higher MMAs” and the “increase of the DSPC flip-flop rate” value [2] was 4 fold. For the same compound, the “32:6 n-3 level in RPE” value ([3]; 4-8 hr after gavage) was “significant increase”, the “32:6 n-3 level in retina” value ([3]; 4-8 hr after gavage) was “significant increase” and the “time until serum VLC-PUFAs became detectable” value ([3]; serum) was at most 2 h. For the same compound, the “serum VLC-PUFA concentration course after the first detection” value ([3]; serum, over the next 24 hr) was “reached a lower steady-state concentration”, the VLC-PUFAs in brain ([3]; throughout the 24 hr-period) was “undetectable” and the VLC-PUFAs in liver ([3]; throughout the 24 hr-period) was “undetectable”. The “VLC-PUFAs in red blood cell (RBC) membranes” value ([3]; throughout the 24 hr-period) was “undetectable”, the “RBC VLC-PUFAs” value [4, 5] was “significant increase” and the “serum VLC-PUFAs” value [4, 5] was “significant increase”. For the same compound, the VLC-PUFAs in brain ([4]; 1 and 2 mg/day, mice) was “no VLC-PUFAs were detectable”, the VLC-PUFAs in liver ([4]; 1 and 2 mg/day, mice) was “detectable levels of VLC-PUFAs only in the 2 mg/day group” and the “increase of VLC-PUFA levels in RPE” value [4, 6] was 7 fold. For the same compound, the “increase of VLC-PUFA levels in retina” value [4, 6] was 2 fold, the “toxic symptoms or behavioral changes” value ([4]; treatment groups compared to the control group, mice) was “toxic symptoms or behavioral changes were observed” and the “contrast sensitivity (rod function)” value (WT mice (C57BL/6J)) was “improved significantly”. The “visual acuity (cone function)” value (WT mice (C57BL/6J)) was “improved significantly”.
